Reference: patent US8623889B2, “Substituted 6,6-fused nitrogenous heterocyclic compounds and uses thereof” (Genentech, Inc., priority 2010, dated 2014)
pEC50: −log10 of the molar value.

How the values were obtained:
[1] = test system: K-562 cells; test: K-562 cell proliferation assay (CellTiter-Glo); format: cell-based; details: Homo sapiens, K562, 96 h; expected value of assay standard; 4 days incubation; read-out: EC50 to inhibit K-562 cell growth
Description: The luminescent signal is proportional to the amount of ATP present.

[2] = test system: HL-60 cells; test: HL-60 cell proliferation assay (CellTiter-Glo); format: cell-based; details: 4 days incubation
Description: HL-60 cells are a Philadelphia Chromosome Negative (Ph-) cell line that serve as a control for the K-562 proliferation assay. Compounds that exert their activity by inhibition of Abl kinase should not inhibit proliferation of HL-60 cells unless such activity is due to off-target activity. This assay determines the number of viable cells in a culture by quantification of ATP. Promega's CellTiter-Glo® Luminescent Cell Viability Assay (CTG) is the reagent used for this determination. The assay is homogenous. Addition of the CTG reagent results in cell lysis and generation of a luminescent signal through the luciferase reaction. The luminescent signal is proportional to the amount of ATP present. For compounds that interfere with cell division and/or have effects on cell size, the readout is not necessarily proportional to cell number/viability. […] Cytostatic: Luminescence counts should be equivalent to counts obtained from a Day 0 read; and Cytotoxic: Luminescence counts should be equivalent to background. • Seed cells at 20000 cells/well in 20 ul cell plating media into a 384 well cell plate. […] Incubate in humidified CO2 incubator • Day 4a: Add 40 uL of Cell Titer-Glo solution • Day 4b: Incubate CTG reaction • Day 4c: Read luminescence

| EC50 to inhibit HL-60 cell growth (in words) ([2]; expected result of assay standard) | Structure (SMILES) | pEC50 [1] | pEC50 ([2]; Homo sapiens, HL-60, 96 h, expected value of assay standard, read-out: EC50 to inhibit HL-60 cell growth) |
| --- | --- | --- | --- |
| – | COC(=O)Nc1nc2ccc(C(=O)c3cccs3)cc2[nH]1 [Nocodazole] | ~7.40 | ~7.40 |
| Inactive | CS(=O)(=O)O.Cc1ccc(NC(=O)c2ccc(CN3CCN(C)CC3)cc2)cc1Nc1nccc(-c2cccnc2)n1 [CAS NO 220127-57-1] | – | – |
